Among the data in US20070060595A1, “Novel fused heterocyclic compound and use thereof” (priority 2003, published 2007) are IC50 values, retold here.

By IC50 is commonly meant the concentration at which inhibition is half-maximal.

The assay concerns the target recombinant human JNK (JNK1, JNK2). Briefly: JNK inhibitory activity, enzyme assay (phosphorylation of biotinylated ATF2, Alpha Screen detection). The class given is biochemical. The following applies: JNK isoform not stated. As for the experimental part: 5 μL of kinase buffer (25 mM Tris-HCl (pH 7.5), 5 mM β-glycerophosphoric acid, 2 mM dithiothreitol, 0.1 mM Na3VO4, 10 mM MgCl2) including recombinant human JNK (JNK1: Upstate Biotechnology #14-327, JNK2: Upstate Biotechnology #14-329) was added to well of 384-well plate for fluorescence assay (5 μL) (JNK1: 20 μU/well, JNK2: 50 μU/well). Then, kinase buffer including the compound of the present invention was added into it to carry out incubation for 20 minutes at room temperature. Subsequently, substrate mixture prepared with kinase buffer [biotinylated ATF2 (5 μg/mL) (Upstate Biotechnology #14-432), adenosine triphosphate (JNK1 activity measurement: 2 μmol/L, JNK2 activity measurement: 5 μmol/L) (Cell Signaling Technology #9804), anti-phosphorylated ATF2 antibody (20-fold dilution) (Cell Signaling Technology #9221L)] was added to carry out enzyme reaction for 30 minutes at 30° C. […] The amount of complex between phosphorylated ATF2 and anti-phosphorylated ATF2 was measured with Alpha Screen™ Rabbit Detection Kit (Packard #6760607).
JNK inhibitory activity which is the effect of the compound of the present invention was calculated as inhibition ratio (%) by the following equation: Inhibition ratio(%)=[(AC−AX)/(Ac−AB)]×100
AB: measured value without enzyme;
AC: measured value with enzyme and without a test compound;
AX: measured value with enzyme and a test compound

`COc1cc(CNc2cc(-c3ccsc3)nc3ccnn23)cc(OC)c1OC` [Example 3, 5-thien-3-yl-N-(3,4,5-trimethoxybenzyl)pyrazolo[1,5-a]pyrimidin-7-amine]: the IC50 is 740 nM.

`Clc1cc(NCc2ccc3c(c2)OCO3)n2nccc2n1` [Example 1(1), N-(1,3-benzodioxol-5-ylmethyl)-5-chloropyrazolo[1,5-a]pyrimidin-7-amine]: the IC50 was found to be 330 nM.
